According to ChEMBL document CHEMBL1125524, “Adenosine A1 antagonists. 2. Structure-activity relationships on diuretic activities and protective effects against acute renal failure” (J Med Chem, 1992):

Experiments:
Rattus norvegicus [1] = experiment: Serum creatinine concentration measured after intraperitoneal administration of 10 mg/kg of compound to rats(vehicle 3.38+/-0.29); assay type: functional
Adenosine receptor A1 = biological target: T1, Adenosine receptor A1 (Cavia porcellus, UniProt P47745)
T1 sequence (P47745 whole entry): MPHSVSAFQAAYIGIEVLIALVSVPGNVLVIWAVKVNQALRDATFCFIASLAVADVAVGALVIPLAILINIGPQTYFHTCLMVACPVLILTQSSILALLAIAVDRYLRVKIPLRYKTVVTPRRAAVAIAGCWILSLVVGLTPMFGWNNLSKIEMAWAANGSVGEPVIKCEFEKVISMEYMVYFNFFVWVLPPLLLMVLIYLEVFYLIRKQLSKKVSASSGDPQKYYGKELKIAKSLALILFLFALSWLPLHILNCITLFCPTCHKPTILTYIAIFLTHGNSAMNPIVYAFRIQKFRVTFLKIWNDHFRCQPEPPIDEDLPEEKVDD
Description: Binding affinity against adenosine A1 receptor in guinea pig forebrain membranes using N6-[3H]cyclohexyladenosine as radioligand

Adenosine A2 receptor [2] = biological target: T2, Adenosine A2 receptor (Rattus norvegicus, UniProt P29276+P30543)
Description: Binding affinity towards adenosine A2 receptor in rat striatal membranes using N-[3H]-ethyladenosin-5''-uronamide as radioligand

Rattus norvegicus [3] = experiment: Urea nitrogen concentration measured after intraperitoneal administration of 10 mg/kg of compound to rats(vehicle 114+/-8.7); assay type: functional
Rattus norvegicus [4] = experiment: Ratio of urinary excretion value (urinary volume) in treated rats to that in control rats, at a peroral dose of 25 mg/Kg; assay type: functional, Urine
Rattus norvegicus [5] = experiment: Ratio of urinary excretion value (Na+ concentration) in treated rats to that in control rats, at a peroral dose of 25 mg/Kg; assay type: functional, Urine
Rattus norvegicus [6] = experiment: Percent inhibition of Urea nitrogen by the compound given as ratio of UN value in treated to vehicle treated ones after intraperitoneal administration of 10 mg/kg of compound to rats(vehicle 114+/-8.7); assay type: functional; conditions: ip
Rattus norvegicus [7] = experiment: Oral diuretic activity was measured after oral administration of 25 mg/kg to rats(control volume is 1.02+/-0.02); assay type: functional, Urine
Rattus norvegicus [8] = experiment: Effect on urinary excretion potassium and sodium after oral administration of 25 mg/kg to rats(potassium and sodium excretion in control rat is 0.209+/-0.007); assay type: functional, Urine
Adenosine A2 receptor [9] = biological target: T2, Adenosine A2 receptor; remark: listed apart in the source
Rattus norvegicus [10] = experiment: Percent inhibition of serum creatinine by the compound given as ratio of Cr value in treated to vehicle treated ones after intraperitoneal administration of 10 mg/kg of compound to rats(vehicle 3.38+/-0.29); assay type: functional; conditions: ip
Rattus norvegicus [11] = experiment: Ratio of sodium ion/potassium ion concentration in treated rats to that in control rats, at a peroral dose of 25 mg/Kg; assay type: functional
Rattus norvegicus [12] = experiment: Effect on urinary excretion potassium and sodium after oral administration of 25 mg/kg to rats(potassium and sodium excretion in control rat is 0.265+/-0.099); assay type: functional, Urine
Rattus norvegicus [13] = experiment: Ratio of urinary excretion value (Na+ concentration) in treated rats to that in control rats, at a peroral dose of 6.25 mg/Kg; assay type: functional, Urine
Rattus norvegicus [14] = experiment: Serum creatinine concentration measured after intraperitoneal administration of 1 mg/kg of compound to rats(vehicle 5.07+/-0.33); assay type: functional
Rattus norvegicus [15] = experiment: Percent inhibition of Urea nitrogen by the compound given as ratio of UN value in treated to vehicle treated ones after intraperitoneal administration of 10 mg/kg of compound to rats(vehicle 177.4+/-5.3); assay type: functional; conditions: ip
Rattus norvegicus [16] = experiment: Urea nitrogen concentration measured after intraperitoneal administration of 10 mg/kg of compound to rats(vehicle 177.4+/-5.3); assay type: functional
Rattus norvegicus [17] = experiment: Ratio of urinary excretion value (urinary volume) in treated rats to that in control rats, at a peroral dose of 6.25 mg/Kg; assay type: functional, Urine
Rattus norvegicus [18] = organism: Rattus norvegicus; experiment: animal or person; conditions: ip, read-out: Inhibition, dose 1 mg/kg, route intraperitoneal
Rattus norvegicus [19] = experiment: Percent inhibition of Urea nitrogen by the compound given as ratio of UN value in treated to vehicle treated ones after intraperitoneal administration of 1 mg/kg of compound to rats(vehicle 195.8+/-14.4); assay type: functional; conditions: Rattus norvegicus, ip
Rattus norvegicus [20] = experiment: Serum creatinine concentration measured after intraperitoneal administration of 10 mg/kg of compound to rats(vehicle 5.53+/-0.34); assay type: functional
Rattus norvegicus [21] = experiment: Urea nitrogen concentration measured after intraperitoneal administration of 1 mg/kg of compound to rats(vehicle 195.8+/-14.4); assay type: functional
Rattus norvegicus [22] = experiment: Oral diuretic activity was measured after oral administration of 25 mg/kg to rats(control volume is 1.64+/-0.7); assay type: functional, Urine
Rattus norvegicus [23] = experiment: Percent inhibition of serum creatinine by the compound given as ratio of Cr value in treated to vehicle treated ones after intraperitoneal administration of 10 mg/kg of compound to rats(vehicle 5.53+/-0.34); assay type: functional; conditions: ip
Rattus norvegicus [24] = experiment: Oral diuretic activity was measured after oral administration of 25 mg/kg to rats(control volume is 1.21+/-0.08); assay type: functional, Urine
Rattus norvegicus [25] = experiment: Percent inhibition of Urea nitrogen by the compound given as ratio of UN value in treated to vehicle treated ones after intraperitoneal administration of 10 mg/kg of compound to rats(vehicle 145.1+/-7.4); assay type: functional; conditions: ip
Rattus norvegicus [26] = experiment: Percent inhibition of serum creatinine by the compound given as ratio of Cr value in treated to vehicle treated ones after intraperitoneal administration of 10 mg/kg of compound to rats(vehicle 4.41+/-0.16); assay type: functional; conditions: ip
Rattus norvegicus [27] = experiment: Percent inhibition of Urea nitrogen by the compound given as ratio of UN value in treated to vehicle treated ones after intraperitoneal administration of 1 mg/kg of compound to rats(vehicle 154.2+/-5); assay type: functional; conditions: ip
Rattus norvegicus [28] = experiment: Serum creatinine concentration measured after intraperitoneal administration of 1 mg/kg of compound to rats(vehicle 4.70+/-0.17); assay type: functional
Rattus norvegicus [29] = experiment: Serum creatinine concentration measured after intraperitoneal administration of 10 mg/kg of compound to rats(vehicle 4.41+/-0.16); assay type: functional
Rattus norvegicus [30] = experiment: Urea nitrogen concentration measured after intraperitoneal administration of 10 mg/kg of compound to rats(vehicle 145.1+/-7.4); assay type: functional
Rattus norvegicus [31] = experiment: Effect on urinary excretion potassium and sodium after oral administration of 25 mg/kg to rats(potassium and sodium excretion in control rat is 0.180+/-0.014); assay type: functional, Urine
Rattus norvegicus [32] = experiment: Percent inhibition of serum creatinine by the compound given as ratio of Cr value in treated to vehicle treated ones after intraperitoneal administration of 1 mg/kg of compound to rats(vehicle 4.70+/-0.17); assay type: functional; conditions: ip
Rattus norvegicus [33] = experiment: Urea nitrogen concentration measured after intraperitoneal administration of 1 mg/kg of compound to rats(vehicle 154.2+/-5); assay type: functional
Rattus norvegicus [34] = experiment: Percent inhibition of Urea nitrogen by the compound given as ratio of UN value in treated to vehicle treated ones after intraperitoneal administration of 10 mg/kg of compound to rats(vehicle 110.7+/-9.4); assay type: functional; conditions: ip
Rattus norvegicus [35] = experiment: Ratio of sodium ion/potassium ion concentration in treated rats to that in control rats, at a peroral dose of 1.6 mg/Kg; assay type: functional
Rattus norvegicus [36] = experiment: Ratio of urinary excretion value (Na+ concentration) in treated rats to that in control rats, at a peroral dose of 1.6 mg/Kg; assay type: functional, Urine
Rattus norvegicus [37] = experiment: Ratio of urinary excretion value (urinary volume) in treated rats to that in control rats, at a peroral dose of 1.6 mg/Kg; assay type: functional, Urine
Rattus norvegicus [38] = experiment: Percent inhibition of serum creatinine by the compound given as ratio of Cr value in treated to vehicle treated ones after intraperitoneal administration of 10 mg/kg of compound to rats(vehicle 3.22+/-0.35); assay type: functional; conditions: ip
Rattus norvegicus [39] = experiment: Serum creatinine concentration measured after intraperitoneal administration of 10 mg/kg of compound to rats(vehicle 3.22+/-0.35); assay type: functional

## Nc1nc2ccc(Cl)cc2n2c(-c3ccccc3)nnc12
Rattus norvegicus [1]
  Cr: 4.58 mg/dL
Adenosine receptor A1
  Ki: 6.9 µM
Adenosine A2 receptor [2]
  Ki: 0.021 µM
Rattus norvegicus [3]
  UN: 137.8 mg/dL
Rattus norvegicus [4]
  T/C: 0.85
Rattus norvegicus [5]
  T/C: 0.89
Rattus norvegicus [6]
  inhibition in vivo at 10 mg/kg: -21%
Rattus norvegicus [7]
  Urine volume: 0.87 ml 6hr-1 100g-1
Rattus norvegicus [8]
  Na: 0.186 m equiv 6hr-1 100g-1
Adenosine A2 receptor [9]
  Ki: 0.0051 µM
Rattus norvegicus [10]
  inhibition in vivo at 10 mg/kg: -36%
Rattus norvegicus [11]
  Na+/K+: 1.05

## CCCn1c(=O)[nH]c(=O)c2[nH]c(C34CC5CC(CC3C5)C4)nc21
Rattus norvegicus [12]
  Na: 0.4 m equiv 6hr-1 100g-1
Rattus norvegicus [13]
  T/C: 1.49
Rattus norvegicus [4]
  T/C: 1.43
Rattus norvegicus [14]
  Cr: 4.33 mg/dL
Rattus norvegicus [5]
  T/C: 1.51
Rattus norvegicus [15]
  inhibition in vivo at 10 mg/kg: 39%
Rattus norvegicus [16]
  UN: 107.4 mg/dL
Adenosine A2 receptor [9]
  Ki: > 100 µM
Rattus norvegicus [17]
  T/C: 1.26
Rattus norvegicus [18]
  inhibition in vivo at 1 mg/kg: 15%
Rattus norvegicus [19]
  inhibition in vivo at 1 mg/kg: 16%
Rattus norvegicus [20]
  Cr: 2.83 mg/dL
Rattus norvegicus [21]
  UN: 164.9 mg/dL
Rattus norvegicus [22]
  Urine volume: 2.34 ml 6hr-1 100g-1
Rattus norvegicus [23]
  inhibition in vivo at 10 mg/kg: 49%
Rattus norvegicus [11]
  Na+/K+: 1.29

## Cn1c(=O)c2c(ncn2C)n(C)c1=O [CAFFEINE]
Rattus norvegicus [24]
  Urine volume: 1.84 ml 6hr-1 100g-1
Rattus norvegicus [25]
  inhibition in vivo at 10 mg/kg: 25%
Rattus norvegicus [26]
  inhibition in vivo at 10 mg/kg: 35%
Rattus norvegicus [27]
  inhibition in vivo at 1 mg/kg: 18%
Rattus norvegicus [13]
  T/C: 1.1
Rattus norvegicus [4]
  T/C: 1.68
Rattus norvegicus [5]
  T/C: 1.55
Rattus norvegicus [28]
  Cr: 3.68 mg/dL
Rattus norvegicus [17]
  T/C: 0.92
Rattus norvegicus [29]
  Cr: 2.85 mg/dL
Rattus norvegicus [30]
  UN: 109 mg/dL
Rattus norvegicus [31]
  Na: 0.28 m equiv 6hr-1 100g-1
Rattus norvegicus [32]
  inhibition in vivo at 1 mg/kg: 22%
Rattus norvegicus [33]
  UN: 125.7 mg/dL
Rattus norvegicus [11]
  Na+/K+: 1.28

## NS(=O)(=O)c1cc(C(=O)O)c(NCc2ccco2)cc1Cl [FUROSEMIDE]
Rattus norvegicus [24]
  Urine volume: 2.12 ml 6hr-1 100g-1
Rattus norvegicus [34]
  inhibition in vivo at 10 mg/kg: -36%
Rattus norvegicus [13]
  T/C: 1.62
Rattus norvegicus [35]
  Na+/K+: 0.87
Rattus norvegicus [4]
  T/C: 1.75
Rattus norvegicus [5]
  T/C: 1.64
Rattus norvegicus [36]
  T/C: 0.94
Rattus norvegicus [37]
  T/C: 1
Rattus norvegicus [38]
  inhibition in vivo at 10 mg/kg: -30%
Rattus norvegicus [39]
  Cr: 4.17 mg/dL
Rattus norvegicus [17]
  T/C: 1.59
Rattus norvegicus [11]
  Na+/K+: 1.05
